Data as given in patent US20240041898A9, “NEUROSTEROIDS AND ENANTIOMERS THEREOF FOR THE PREVENTION AND TREATMENT OF NEURODEGENERATIVE CONDITIONS” (priority 2019, published 2024).
Read-outs that look alike come from different tables or passages of the source.

Experiments:
[1] = system: p62; assay: Ex vivo pressure-loaded retinas, Western blot of p62; assay type: cell-based, rat; conditions: 10 mM 3-MA, 1 μM ent-AlloP, 75 mmHg
Description: (§1) Rat ex vivo Eyecup Preparation—Rat ex vivo eyecups were prepared from 28-32 day old male Sprague-Dawley rats (Charles River Laboratories International Inc., Wilmington, MA). The anterior half of the enucleated eyes was carefully removed to make eyecup preparations. Eyecups were placed at the bottom of a 100 ml glass beaker filled with aCSF (artificial cerebrospinal fluid) containing (in mM): 124 NaCl, 5 KCl, 2 MgSO4, 2 CaCl2, 1.25 NaH2PO4, 22 NaHCO3, and 10 glucose, and incubated at 30° C. for 24 hours using a closed pressure-loading system (FIG. 1C). pH was maintained at 7.35 to 7.40. In the closed-pressure system, a glass beaker with the eyecup was placed at the bottom of an acrylic pressure chamber (2,000 ml volume). A 95% O2-5% CO2 gas mixture was delivered through disposable plastic tubing with an infusion valve and a control dial on the lid of the pressure chamber and an air filter (Cat #SLGP033RS, Merck Millipore, Billerica, MA). The plastic tubing delivering the gas terminated 1 cm above the bottom of the beaker.
(§2) Acutely prepared eyecups were incubated in gassed aCSF for at least 1 h at 30° C. before pressure loading. In some experiments, AlloP (1 μM), ent-AlloP (1 μM), and 3-MA (10 mM) were dissolved in aCSF at the time of experiment and administered by bath perfusion. Eyecup preparations were treated with these drugs for 1 h at 30° C. before pressure loading. For pressure loading, the 95% O2-5% CO2 gas mixture was infused until the pressure reading given by a manometer reached the appropriate level. The pressure was then locked by adjusting the control dial of the effusion valve, and monitored continuously for 24 h at 30° C.
Western Blot Analysis—At the end of each experiment, the posterior segments of the eye were placed on a flat cutting surface and immersed in ice-cold aCSF. With a surgical blade, the retina was carefully and gently detached from the sclera with a fine forceps. The isolated retinas were frozen at −80° C. Retinas were then homogenized in lysis buffer solution (CelLytic MT; Sigma-Aldrich, Inc.) with protease inhibitor cocktail (Sigma-Aldrich, Inc.), prepared according to the manufacturer's instructions. The tissue extracts were ultrasonicated and clarified by centrifugation at 12,000 g for 20 minutes at 4° C. The protein concentrations in supernatants were assayed (Quant-iT assay kit; Invitrogen Corp., Carlsbad, CA). Twenty micrograms of retinal extract were subjected to SDS polyacrylamide gel electrophoretic analysis. The proteins were then transferred to a PVDF. Immunoblots by polyclonal rabbit anti-LC3B antibody (MBL Life Science) or anti-SQSTMl/p62 mouse monoclonal antibody (Abcam) were visualized using WesternBreeze Chemiluminescent Immunodetection system (Invitrogen) with the exposure time to autoradiograph film (MXJB Plus; Kodak, Rochester, NY) adjusted to avoid over- or undersaturation. Precision Plus Protein™ Western Standards (Bio-Rad, Hercules, CA) followed by Precision Protein™ strep Tactin-AP conjugate (Bio-Rad) was used for a molecular marker of LC3. […]
The density of Western blot bands was quantified using Image-Pro Plus software. Quantification was adjusted to protein expression at 10 mmHg after normalization to the β-actin band at each pressure, and the relative gray-scale value was calculated by densitometric analysis of the obtained bands. […] Differences in expression levels were evaluated using Wilcoxon Rank-Sum Test, Tukey's or Dunnett's multiple comparison test. […]

[2] = system: LC3-II; assay: Ex vivo pressure-loaded retinas, Western blot of LC3-II; assay type: cell-based, rat; conditions: 10 mM 3-MA, 1 μM ent-AlloP, 75 mmHg
Description: as §1, §2
Western Blot Analysis—At the end of each experiment, the posterior segments of the eye were placed on a flat cutting surface and immersed in ice-cold aCSF. With a surgical blade, the retina was carefully and gently detached from the sclera with a fine forceps. The isolated retinas were frozen at −80° C. Retinas were then homogenized in lysis buffer solution (CelLytic MT; Sigma-Aldrich, Inc.) with protease inhibitor cocktail (Sigma-Aldrich, Inc.), prepared according to the manufacturer's instructions. The tissue extracts were ultrasonicated and clarified by centrifugation at 12,000 g for 20 minutes at 4° C. The protein concentrations in supernatants were assayed (Quant-iT assay kit; Invitrogen Corp., Carlsbad, CA). Twenty micrograms of retinal extract were subjected to SDS polyacrylamide gel electrophoretic analysis. The proteins were then transferred to a PVDF. Immunoblots by polyclonal rabbit anti-LC3B antibody (MBL Life Science) or anti-SQSTMl/p62 mouse monoclonal antibody (Abcam) were visualized using WesternBreeze Chemiluminescent Immunodetection system (Invitrogen) with the exposure time to autoradiograph film (MXJB Plus; Kodak, Rochester, NY) adjusted to avoid over- or undersaturation. Precision Plus Protein™ Western Standards (Bio-Rad, Hercules, CA) followed by Precision Protein™ strep Tactin-AP conjugate (Bio-Rad) was used for a molecular marker of LC3. MagicMark™ XP Western Protein Standard (Invitrogen, Carlsbad, CA) was used for a molecular marker of p62. Immunoblot data are normalized to β-actin levels in the same sample.
The density of Western blot bands was quantified using Image-Pro Plus software. Quantification was adjusted to protein expression at 10 mmHg after normalization to the β-actin band at each pressure, and the relative gray-scale value was calculated by densitometric analysis of the obtained bands. At least four independent experiments were performed for each condition, and the results are presented as relative units numerically. Differences in expression levels were evaluated using Wilcoxon Rank-Sum Test, Tukey's or Dunnett's multiple comparison test. Sample numbers were four to five per each experimental condition.

[3] = system: pressure-loaded ex vivo rat retinas; assay type: cell-based; conditions: for retinal morphology with 3-MA alone: 10 mM
Description: as §1, §2
Data analysis of morphometry—The middle portion of the retina was examined, greater than 1,200 μm away from the center of the optic disc along the inner limiting membrane (ILM). The nerve fiber layer thickness (NFLT) was measured by light microscopy along 5 lines perpendicular to the pigment epithelium at a distance of 15 μm from each other around 1,200 μm away from the center of the optic disc. The average NFLT was determined in 9 different light micrographs taken from 5 eyecup samples in each condition, divided by total retinal thickness, and mean±standard deviation (%) was analyzed and compared with control.
The density of degenerated cells characterized by nuclear chromatin clumping or necrosis in the GCL was determined by counting 9 fields of 500 μm length in light micrographs taken from the block of the middle retinal part 950 to 1450 μm away from the center of the optic disc.
The severity of neuronal damage was assessed by light microscopy using a neuronal damage score (NDS). The NDS was determined in 9 different light micrographs taken from 5 eyecup samples in each condition. The NDS rates neuronal damage in the inner nuclear layer (INL) and the inner plexiform layer (IPL) on a 0-4 scale with 0 signifying no neuronal damage and 4 indicating very severe damage. Criteria used in establishing the degree of neuronal damage included the extent of cytoplasmic swelling in the IPL and the number of neurons in the INL showing signs of severe cytoplasmic swelling and coarse clumping of nuclear chromatin. The highest NDS rating (4) is given when the IPL discloses apparent spongiform appearance due to dendritic swelling and when most cell bodies in the INL show severe cytoplasmic swelling and coarse clumping of nuclear chromatin. If the damage is of a lesser degree, a rating of 3 is given. NDS 2 is assigned when cell bodies in the INL are sporadically swollen. […] Fine dendritic swelling in a limited area of the IPL without damage in the INL is described by NDS 1.
NFLT, density of degenerated cells in the GCL, and NDS were determined as the measurement of 10 different areas from three eyes per experimental condition. These morphometrical parameters were assessed by three raters, who remained unaware of the experimental condition. […]

In the case of `Cn1cnc(N)c2ncnc1-2` [3-MA, 3-methyladenine], the “effect of 3-MA on the decrease of p62 levels induced by ent-AlloP” value [1] was “reversed”, the “effect of 3-MA on upregulation of LC3-II levels induced by ent-AlloP” value [2] was “dampened” and the “effect of 3-MA on neuroprotection by AlloP” value ([3]; 10 mM 3-MA + 1 μM AlloP, 75 mmHg) was “did not alter neuroprotection by AlloP”. The “effect of 3-MA on the effects of ent-AlloP” value ([3]; 10 mM 3-MA + 1 μM ent-AlloP, 75 mmHg) was “dampened the effects of ent-AlloP”, the “retinal morphology with 3-MA alone” value ([3]; 10 mmHg) was “neurodegenerative” and the “retinal morphology with 3-MA alone” value ([3]; 75 mmHg) was “neurodegenerative”.
In the case of picrotoxin, the “effect of picrotoxin on the neuroprotective effect of AlloP” value ([3]; 1 μM picrotoxin + 1 μM AlloP, hyperbaric conditions (75 mmHg)) was “overcame the neuroprotective effect of AlloP” and the “effect of picrotoxin on the effects of ent-AlloP” value ([3]; 1 μM picrotoxin + 1 μM ent-AlloP, 75 mmHg) was “did not alter the effects of ent-AlloP”.
